This is an account of results in ChEMBL document CHEMBL1141938 (Bioorg Med Chem Lett, 2005).

Series [1] deals with Human immunodeficiency virus. The series can be described thus: Antiviral activity in MT4 human T lymphoid cells infected with wild type NL4-3 HIV. It counts as functional. The following applies: Human immunodeficiency virus 1, NL4-3, MT4; read-out: CIC95.
The subject of series [2] is Human immunodeficiency virus. Nature of the series: Antiviral activity against 4X HIV strain. As to conditions: Human immunodeficiency virus 1, 4X; read-out: CIC95. It counts as functional.
Series [3] deals with Human immunodeficiency virus. Nature of the series: Antiviral activity against mutant HIV isolate K-60C. It is filed as functional. As to conditions: Human immunodeficiency virus 1, K-60; read-out: CIC95.
In series [4] the test system is Human immunodeficiency virus. Nature of the series: Antiviral activity against mutant HIV isolate V-18C. It is filed as functional. As to conditions: Human immunodeficiency virus 1, V-18C; read-out: CIC95.
The test system of series [5] is Human immunodeficiency virus. Nature of the series: Antiviral activity against mutant HIV isolate Q-60C. The following applies: Human immunodeficiency virus 1, Q-60C; read-out: CIC95. It is filed as functional.
The target of series [6] is Human immunodeficiency virus type 1 protease (Human immunodeficiency virus 1, UniProt Q72874).
Description: Inhibitory activity against HIV protease
Series [7] in a line: Cmax in rat at 10 mg/kg, po. Set-up: dose 10 mg/kg, route oral. It is filed as ADME, organism-based. The following applies: in vivo.
For series [8], the system named is Rattus norvegicus. The series can be described thus: AUC in rat at 10 mg/kg, po. It counts as ADME, organism-based, Plasma. Set-up: dose 10 mg/kg, route oral. The following applies: in vivo.
A short description of series [9]: Oral bioavailability in rat at 10 mg/kg, po. It counts as ADME, organism-based. As to conditions: in vivo.
Series [10] in a line: Half life in rat at 10 mg/kg, po. It is filed as ADME, organism-based. Set-up: dose 10 mg/kg, route oral. The following applies: in vivo.
Series [11] can be described thus: Plasma clearance in rat at 10 mg/kg, po. It counts as ADME, organism-based. Set-up: dose 10 mg/kg, route oral.
A short description of series [12]: Cmax in dog at 10 mg/kg, po. It counts as ADME, organism-based, Canis lupus familiaris. Set-up: dose 10 mg/kg, route oral. The following applies: in vivo.
The next series deals with Canis familiaris. Nature of the series: AUC in dog at 10 mg/kg, po. It counts as ADME, organism-based, Canis lupus familiaris, Plasma. Set-up: dose 10 mg/kg, route oral. The following applies: in vivo.
The nature of series [13]: Oral bioavailability in dog at 10 mg/kg, po. The following applies: in vivo. It counts as ADME, organism-based, Canis lupus familiaris.
Series [14] in a line: Half life in dog at 10 mg/kg, po. It is filed as ADME, organism-based, Canis lupus familiaris. Set-up: dose 10 mg/kg, route oral. As to conditions: in vivo.
A short description of series [15]: Plasma clearance in dog at 10 mg/kg, po. It counts as ADME, organism-based, Canis lupus familiaris. Set-up: dose 10 mg/kg, route oral.
For the next series, the target named is Cytochrome P450 3A4 (Homo sapiens, UniProt P08684). The series can be described thus: Inhibitory activity against CYP3A4. It counts as ADME.
Chain of Cytochrome P450 3A4 (P08684 whole entry): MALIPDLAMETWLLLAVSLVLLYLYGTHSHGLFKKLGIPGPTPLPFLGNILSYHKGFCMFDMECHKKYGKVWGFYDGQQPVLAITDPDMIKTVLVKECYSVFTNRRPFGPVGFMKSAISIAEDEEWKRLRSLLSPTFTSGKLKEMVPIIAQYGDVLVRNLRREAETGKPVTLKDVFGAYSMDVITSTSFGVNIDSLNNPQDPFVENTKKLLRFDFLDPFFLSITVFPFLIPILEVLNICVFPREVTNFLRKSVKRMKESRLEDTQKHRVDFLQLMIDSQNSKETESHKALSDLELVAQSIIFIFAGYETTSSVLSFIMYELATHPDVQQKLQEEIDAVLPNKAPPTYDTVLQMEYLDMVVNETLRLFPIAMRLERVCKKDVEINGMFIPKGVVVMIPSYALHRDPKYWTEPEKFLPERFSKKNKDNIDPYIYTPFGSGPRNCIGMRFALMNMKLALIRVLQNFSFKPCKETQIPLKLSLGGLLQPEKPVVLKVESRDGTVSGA
A further series concerns the target Cytochrome P450 2D6 (Homo sapiens, UniProt P10635). Nature of the series: Inhibitory activity against CYP2D6. It counts as ADME.
The target of the next series is Cytochrome P450 2C9 (Homo sapiens, UniProt P11712). The series can be described thus: Inhibitory activity against CYP2C9. It counts as ADME.
Chain of Cytochrome P450 2C9 (P11712 whole entry): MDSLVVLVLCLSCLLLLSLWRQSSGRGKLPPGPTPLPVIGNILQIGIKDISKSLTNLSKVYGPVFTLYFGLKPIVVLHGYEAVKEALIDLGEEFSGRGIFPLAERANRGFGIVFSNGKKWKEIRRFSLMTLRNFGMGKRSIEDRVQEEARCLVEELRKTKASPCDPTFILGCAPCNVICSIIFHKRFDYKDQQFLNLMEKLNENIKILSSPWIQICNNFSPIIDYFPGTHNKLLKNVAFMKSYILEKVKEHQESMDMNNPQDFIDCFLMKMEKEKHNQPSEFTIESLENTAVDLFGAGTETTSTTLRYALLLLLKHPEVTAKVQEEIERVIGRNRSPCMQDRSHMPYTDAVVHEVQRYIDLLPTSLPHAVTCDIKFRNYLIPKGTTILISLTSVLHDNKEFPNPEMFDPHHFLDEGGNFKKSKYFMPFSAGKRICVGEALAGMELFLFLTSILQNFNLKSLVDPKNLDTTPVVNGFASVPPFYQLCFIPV
The nature of series [16]: Cmax in rat at 2 mg/kg, po. It is filed as ADME, organism-based. Set-up: dose 2 mg/kg, route oral. As to conditions: in vivo.
For series [17], the system named is Rattus norvegicus. The series can be described thus: AUC in rat at 2 mg/kg, po. It counts as ADME, organism-based, Plasma. Set-up: dose 2 mg/kg, route oral. The following applies: in vivo.
The nature of series [18]: Oral bioavailability in rat at 2 mg/kg, po. It is filed as ADME, organism-based. The following applies: in vivo.
Series [19] is described as follows: Half life in rat at 2 mg/kg, po. It is filed as ADME, organism-based. Set-up: dose 2 mg/kg, route oral. As to conditions: in vivo.
Series [20] is described as follows: Plasma clearance in rat at 2 mg/kg, po. It counts as ADME, organism-based. Set-up: dose 2 mg/kg, route oral.

Chain of Cytochrome P450 2D6 (P10635 whole entry): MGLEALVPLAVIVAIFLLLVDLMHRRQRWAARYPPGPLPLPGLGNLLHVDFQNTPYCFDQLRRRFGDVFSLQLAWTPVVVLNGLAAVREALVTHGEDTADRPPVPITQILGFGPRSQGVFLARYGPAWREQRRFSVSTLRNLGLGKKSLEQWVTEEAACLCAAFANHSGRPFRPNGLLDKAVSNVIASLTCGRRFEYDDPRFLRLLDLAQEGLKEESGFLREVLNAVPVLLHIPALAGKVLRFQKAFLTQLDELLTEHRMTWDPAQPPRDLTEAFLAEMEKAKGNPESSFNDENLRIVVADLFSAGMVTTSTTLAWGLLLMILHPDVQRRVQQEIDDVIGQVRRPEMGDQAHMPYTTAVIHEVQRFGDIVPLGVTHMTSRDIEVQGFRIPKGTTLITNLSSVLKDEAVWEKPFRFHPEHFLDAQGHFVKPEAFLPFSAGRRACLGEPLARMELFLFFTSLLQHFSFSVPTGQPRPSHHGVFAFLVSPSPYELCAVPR

Broadly, the IC50 is the concentration that inhibits the measured activity by half. For `Cc1ccncc1-c1ccc(C[C@H](C[C@H](O)CN2CCN(Cc3csc(-c4ccc(F)cc4)n3)C[C@H]2C(=O)NCC(F)(F)F)C(=O)N[C@H]2c3ccccc3OC[C@H]2O)o1`, the IC95 in series [1] was < 7.8 nM; in series [2], 15.6 nM; in series [3] it was 125 nM; in series [4] it was 62.5 nM; in series [5], 125 nM. The IC50 in series [6] worked out at 0.11 nM.

In the case of `O=C(N[C@H]1c2ccccc2OC[C@H]1O)[C@H](Cc1cc2cnccc2s1)C[C@H](O)CN1CCN(Cc2ccc(-c3ccc(Cl)cc3)o2)C[C@H]1C(=O)NCC(F)(F)F`, the IC95 in [1] is 15.6 nM; in series [2], 15.6 nM; in series [3] it was < 7.8 nM; in series [4] it was 125 nM; in series [5] it was 31.3 nM. This compound also registered an IC50 in series [6] of 0.03 nM.

`CC(C)(c1ncc(-c2ccc(Cl)cc2)s1)N1CCN(C[C@@H](O)C[C@@H](Cc2cc3cnccc3s2)C(=O)N[C@H]2c3ccccc3OC[C@H]2O)[C@H](C(=O)NCC(F)(F)F)C1`: the IC95 in [1] was < 7.8 nM; in series [2], < 7.8 nM; in series [3], < 7.8 nM; in series [4] it was 31.3 nM; in series [5], < 7.8 nM. In series [6], this compound had an IC50 of 0.04 nM.

In the case of `CC(C)(c1ncc(-c2ccc(Cl)cc2)o1)N1CCN(C[C@@H](O)C[C@@H](Cc2cc3ccncc3s2)C(=O)N[C@H]2c3ccccc3OC[C@H]2O)[C@H](C(=O)NCC(F)(F)F)C1`, the IC95 in series [1], in [2], in [3], in series [4] and in series [5] was < 7.8 nM throughout. The IC50 in series [6] is < 0.02 nM.

Regarding `Cc1ccncc1-c1ccc(C[C@H](C[C@H](O)CN2CCN(Cc3ncc(-c4ccc(Cl)cc4)o3)C[C@H]2C(=O)NCC(F)(F)F)C(=O)N[C@H]2c3ccccc3OC[C@H]2O)o1`, the IC95 was < 7.8 nM in series [1]; 62.5 nM in [2]; 15.6 nM in series [3]; 125 nM in [4]; 62.5 nM in [5]. The same compound gave an IC50 in series [6] of 0.03 nM.

On to `Cc1ccncc1-c1ccc(C[C@H](C[C@H](O)CN2CCN(Cc3ccc(-c4ccc(Cl)cc4)s3)C[C@H]2C(=O)NCC(F)(F)F)C(=O)N[C@H]2c3ccccc3OC[C@H]2O)o1`, for which the IC95 is < 7.8 nM in [1]; 15.6 nM in series [2]; 125 nM in [3]; 62.5 nM in series [4]; 62.5 nM in series [5]. The midpoint of inhibition in series [6], the IC50, lay at 0.04 nM.

With `Cc1ccncc1-c1ccc(C[C@H](C[C@H](O)CN2CCN(C(C)(C)c3ncc(-c4ccc(Cl)cc4)s3)C[C@H]2C(=O)NCC(F)(F)F)C(=O)N[C@H]2c3ccccc3OC[C@H]2O)o1`, the IC95 in series [1] worked out at 15.6 nM; in [2] it was 31.3 nM; in series [3] it was 15.6 nM; in [4], 250 nM; in series [5], 31.3 nM. The same compound displayed an IC50 in series [6] of 0.03 nM.

For `CC(C)(C)NC(=O)[C@@H]1CN(Cc2cccnc2)CCN1C[C@@H](O)C[C@@H](Cc1ccccc1)C(=O)N[C@H]1c2ccccc2C[C@H]1O`, the IC95 in [1] was 50 nM; in series [2] it was 400 nM; in [3] it was > 1000 nM; in [4], > 1000 nM; in [5], > 1000 nM.

For the compound `O=C(N[C@H]1c2ccccc2OC[C@H]1O)[C@H](Cc1cc2ccncc2o1)C[C@H](O)CN1CCN(Cc2ccc(-c3ccc(Cl)cc3)o2)C[C@H]1C(=O)NCC(F)(F)F`, the IC95 in series [1] was < 7.8 nM; in series [2], 31.3 nM; in series [3], < 7.8 nM; in series [4], 62.5 nM; in series [5] it was 15.6 nM. The IC50 in series [6] turned out to be 0.05 nM.

Take `O=C(N[C@H]1c2ccccc2OC[C@H]1O)[C@H](Cc1cc2cnccc2s1)C[C@H](O)CN1CCN(Cc2csc(-c3ccc(C(F)(F)F)cc3)n2)C[C@H]1C(=O)NCC(F)(F)F`: the IC95 in series [1] is 26 nM; in series [2], 125 nM; in [3], 31.3 nM; in series [4], 375 nM; in series [5] it was 93.8 nM. Moreover, the concentration for half-maximal inhibition (IC50) in series [6] is 0.07 nM.

Usually Cmax stands for the maximum level reached in the sampled fluid or tissue. In general, bioavailability refers to dose-corrected exposure relative to a reference, in per cent. Low values mean poor availability, high ones good availability. One may read the half-life as the time in which the quantity being followed falls by half. High values mean slow decline, low ones rapid decline. One may read the CL/F as the apparent clearance, not corrected for the fraction that reaches the circulation. For `CC(C)(c1ncc(-c2ccc(Cl)cc2)o1)N1CCN(C[C@@H](O)C[C@@H](Cc2cc3ccncc3o2)C(=O)N[C@H]2c3ccccc3OC[C@H]2O)[C@H](C(=O)NCC(F)(F)F)C1`, the IC95 in series [1] is < 7.8 nM; in [2], < 7.8 nM; in series [3] it was < 7.8 nM; in [4] it was 31 nM; in series [5], < 7.8 nM. Further, the Cmax amounted to 180 nM in series [7] and 2100 nM in series [12]. In addition, the results for the AUC in the series on Rattus norvegicus [8] and in the series with Canis familiaris were 0.29 uMh and 0.39 uMh, respectively. Moreover, the figures for the bioavailability in series [9] and in [13] were 14% and 42%, respectively. Further, the half-life stood at 48 min in [10] and 60 min in series [14]. Also, the CL/F was found to be 98 mL/min/kg in [11] and 23 mL/min/kg in series [15]. Further, the IC50 against Cytochrome P450 3A4 is < 1000 nM; against Cytochrome P450 2D6, < 1000 nM; against Cytochrome P450 2C9, < 1000 nM; in series [6] it was 0.02 nM.

With `CC(C)(c1ncc(-c2ccc(Cl)cc2)o1)N1CCN(C[C@@H](O)C[C@@H](Cc2cc3cnccc3s2)C(=O)N[C@H]2c3ccccc3OC[C@H]2O)[C@H](C(=O)NCC(F)(F)F)C1`, the IC95 in series [1], in series [2], in series [3], in series [4] and in [5] was < 7.8 nM in each case. The same compound yielded a Cmax in series [16] of 52 nM. For the same compound, the AUC in the series on Rattus norvegicus [17] is recorded as 0.36 uMh. In series [18], this compound came in with a bioavailability of 7.3%. In [19], this compound displayed a half-life of 48 min. Also, the CL/F in [20] worked out at 111 mL/min/kg. The IC50 is < 1000 nM on Cytochrome P450 3A4, < 1000 nM at Cytochrome P450 2D6, < 1000 nM on Cytochrome P450 2C9 and 0.02 nM in series [6].

`CC(C)(c1ncc(-c2ccc(Cl)cc2)o1)N1CCN(C[C@@H](O)C[C@@H](Cc2cc3c(Cl)cncc3s2)C(=O)N[C@H]2c3ccccc3OC[C@H]2O)[C@H](C(=O)NCC(F)(F)F)C1`: the IC95 in series [1] is < 7.8 nM; in [2], < 7.8 nM; in series [3] it was < 7.8 nM; in series [4], 15.6 nM; in series [5], < 7.8 nM. The IC50 in series [6] is < 0.02 nM.

As for `O=C(N[C@H]1c2ccccc2OC[C@H]1O)[C@H](Cc1cc2cnccc2s1)C[C@H](O)CN1CCN(Cc2ccc(-c3ccc(Cl)cc3)s2)C[C@H]1C(=O)NCC(F)(F)F`, the IC95 was 15.6 nM in [1]; 15.6 nM in series [2]; 31.3 nM in [3]; 125 nM in [4]; 31.3 nM in series [5]. The compound also gave an IC50 in series [6] of 0.05 nM.

Regarding `Cc1ccncc1-c1ccc(C[C@H](C[C@H](O)CN2CCN(Cc3ccc(-c4ccc(Cl)cc4)o3)C[C@H]2C(=O)NCC(F)(F)F)C(=O)N[C@H]2c3ccccc3OC[C@H]2O)o1`, the IC95 in series [1] is 15.6 nM; in series [2] it was 31.3 nM; in series [3], < 7.8 nM; in series [4], 125 nM; in series [5] it was 62.5 nM. This compound yielded an IC50 in [6] of 0.08 nM.
